From patent US20250381324A1, “CD31 MIMETIC COATING FOR ENDOVASCULAR STENT” (INSERM (Institut National de la Santé et de la Recherche …, priority 2021, published 2025)
Bridge positions count the residues as written; N and C are the ends. Square brackets hold non-standard residues; d marks the D form. Primed or numbered codes have the meaning given here. Ends that are not written are not given here. * marks the point of attachment. Lys(N3) = [N-]=[N+]=NCCCC[C@H](N)C(=O)O; Ttds = NCCCOCCOCCOCCCNC(=O)CCC(=O)*; hCys = N[C@@H](CCS)C(=O)O; PEG4′ = not defined here

Tested on: Primary Human Aortic Endothelial Cells (HAEC)
Experiment: Human aortic endothelial cells grown 48 h on bare or peptide-coated nitinol disks; F-actin / CD31 staining and image analysis
Type: cell-based
Details: for CD31/Actin score: Example 2, FIG. 25, repeated experiments (SP547, SP548 only one measure)
Procedure: Nitinol disks are left untouched (bare metal) or coated with a domain 1, domain 2 or domain 1 and 2 CD31 analog peptide. The tested peptide is grafted to the nitinol disk following a polydopamine, DBCO-PEG4-amine and azide CD31 derivative peptide using a sequential dip-coating layering procedure. After this step, all the disks are incubated with Human aortic endothelial cells for 48 h. Disks are then rinsed and the cells are fixed in a formalin solution before staining. The staining is fulfilled using phalloidin coupled to AlexaFluor®488 dye (green fluorescence for Actin), DAPI is used for DNA staining and a domain 1 CD31 antibody coupled to APC is used for external Domain 1 staining. The cell adhesion and Actin/CD31 expression was evaluated by image analysis of the surface after staining.
In particular, as per FIG. 2 the bare or coated nitinol disks were placed at the bottom of culture wells. Primary Human Aortic Endothelial Cells (HAEC) were allowed to grow on the disks for a period of 48 h. The disks were thereafter rinsed with phosphate buffered saline, fixed in formalin, and processed for fluorescence microscopy. Disk-adherent cells were immersed in a solution comprising Hoechst 33342 (1 μg/ml, to stain the nuclei), phalloidin coupled to AlexaFluor®488 dye (0.5 μM, to stain F-actin fibers) and a monoclonal antibody directed against CD31 domain 1, coupled to allophycocyanin (to detect the presence and localization of intact CD31 at the cell surface) for 1 hour at 37° C., washed and mounted face down on glass bottom imaging chambers for imaging with an inverted fluorescence microscope.
Surface type is indicated on the Y axis, data are expressed as average±SD (N=6/surface type). Each dot corresponds to a specific surface modification. The F-actin expression relates the cellular stress of the cell in presence of the exogenous material.
In FIG. 4 the surface type is indicated on the Y axis. Each dot corresponds to a specific surface modification. Data are expressed as “Integrated Density” average±SD (N=6/surface type). CD31 expression relates the capacity of endothelial cells to adopt a physiologic phenotype while growing on a given substrate. An important variability is observed in terms of CD31 expression by HAEC according to the surface modification of the nitinol disks.
The “mirror” bars of FIG. 5 report the average Integrated Density of F-actin (left) and of CD31 (right) staining for each of the indicated (Y axis) type of peptide coated onto the disk surface and bare disks. Data are sorted (from the top to the bottom) according to the increase in the cellular stress (actin expression) of each coating. As shown on the figure, the degree of cellular stress (as detected by a high actin expression) and impaired endothelial phenotype (documented by a low CD31 expression) is evident on HAEC grown onto bare metal disks.
The data shown in FIG. 6 are expressed as the ratio between CD31 and F-actin expression.
The effect of different peptides, belonging to the different groups, were tested in batches following the same protocol as in FIG. 6. Different peptides from each group were tested in batches and the effect of individual peptides was repeatedly assessed in separate experiments. Data from all experiments were obtained by computer-assisted analysis of images of the disk side covered with endothelial cells, captured in the blue, green and red channel of an inverted fluorescence microscope. The functional score of the peptides belonging to the different groups was calculated by multiplying the number of cells (as detected by the number of blue, Dapi+ nuclei) for the integrated density of CD31 expression (red signal provided by the binding of a mouse anti-human CD31 monoclonal antibody, clone 9G11, conjugated allophycocyanin) and their product being divided for the integrated density of the F-actin polymerization (Phalloidin coupled to a green fluorochrome). […]

Row | Substance | CD31/Actin score | F-actin expression (cellular stress), Integrated Density (HAEC 48 h on coated nitinol disks, compared to bare metal, FIGS. 2, 3, 5) | CD31 expression (physiologic endothelial phenotype), Integrated Density (HAEC 48 h on coated nitinol disks, compared to other modified disks and bare controls, FIGS. 2, 4, 5)
1 | [Ac-K(N3)-(Ttds)4-PRVTLDKKEAIQGGIVRVNSSVPEEK-Ttds-K^# (CH2CO)-CONH2]-[QHQMLFYhC^#DDVLFYNISSMK-CONH2] (chain 1 {Ac-Lys(N3)-Ttds-Ttds-Ttds-Ttds}-PRVTLDKKEAIQGGIVRVNSSVPEEK-{Ttds-K(CH2CO)-NH2}; chain 2 QHQMLFY[hCys]DDVLFYNISSMK-NH2; also: thioether at chain B 8 to a chain's C-terminus) [SP1383] | significantly higher than those obtained by the bare metal disks or by disks coated with PDA alone |  | 
2 | RDQNFVILEFP-PEG4-K(N3)-NH2 [SP1070] | significantly higher than those obtained by the bare metal disks or by disks coated with PDA alone | does not show an influence on the cellular stress compared to the bare metal | 
3 | Ac-K(N3)-(Ttds)4-PRhCTLDKKEAIQGGIVRVNhCSVPEEK-CONH2 ({Ac-Lys(N3)-Ttds-Ttds-Ttds-Ttds}-PR[hCys]TLDKKEAIQGGIVRVN[hCys]SVPEEK-NH2; disulfide 3-20) [SP1380] |  |  | evident positive effect in terms of CD31 expression
4 | [^#CH2CONH2GTYKSTVIVNNKEKTTAEYQ-(Ttds)4-K(N3)-NH2]-[QHQMLFYhC^#DDVLFYNISSMK-CONH2] (chain 1 GTYKSTVIVNNKEKTTAEYQ-{Ttds-Ttds-Ttds-Ttds-Lys(N3)-NH2}; chain 2 QHQMLFY[hCys]DDVLFYNISSMK-NH2; not fully specified (N-terminus); also: thioether at chain B 8 to a chain's N-terminus) [SP1379] | significantly higher than those obtained by the bare metal disks or by disks coated with PDA alone |  | 
5 | SHQMLFYKDDVLFYNISSS-GGSGGSGG-K(N3)-CONH2 (SHQMLFYKDDVLFYNISSSGGSGGSGG[Lys(N3)]-NH2; N-terminus assumed; SMILES CC[C@H](C)[C@H](NC(=O)[C@H](CC(N)=O)NC(=O)[C@H](Cc1ccc(O)cc1)NC(=O)[C@H](Cc1ccccc1)NC(=O)[C@H](CC(C)C)NC(=O)[C@@H](NC(=O)[C@H](CC(=O)O)NC(=O)[C@H](CC(=O)O)NC(=O)[C@H](CCCCN)NC(=O)[C@H](Cc1ccc(O)cc1)NC(=O)[C@H](Cc1ccccc1)NC(=O)[C@H](CC(C)C)NC(=O)[C@H](CCSC)NC(=O)[C@H](CCC(N)=O)NC(=O)[C@H](Cc1c[nH]cn1)NC(=O)[C@@H](N)CO)C(C)C)C(=O)N[C@@H](CO)C(=O)N[C@@H](CO)C(=O)N[C@@H](CO)C(=O)NCC(=O)NCC(=O)N[C@@H](CO)C(=O)NCC(=O)NCC(=O)N[C@@H](CO)C(=O)NCC(=O)NCC(=O)N[C@@H](CCCCN=[N+]=[N-])C(N)=O) [SP745] | significantly higher than those obtained by the bare metal disks or by disks coated with PDA alone |  | 
6 | Ac-K(N3)-GGSGGSGG-YKDDVLFYNISSMKST-NH2 (Ac-[Lys(N3)]GGSGGSGGYKDDVLFYNISSMKST-NH2; SMILES CC[C@H](C)[C@H](NC(=O)[C@H](CC(N)=O)NC(=O)[C@H](Cc1ccc(O)cc1)NC(=O)[C@H](Cc1ccccc1)NC(=O)[C@H](CC(C)C)NC(=O)[C@@H](NC(=O)[C@H](CC(=O)O)NC(=O)[C@H](CC(=O)O)NC(=O)[C@H](CCCCN)NC(=O)[C@H](Cc1ccc(O)cc1)NC(=O)CNC(=O)CNC(=O)[C@H](CO)NC(=O)CNC(=O)CNC(=O)[C@H](CO)NC(=O)CNC(=O)CNC(=O)[C@H](CCCCN=[N+]=[N-])NC(C)=O)C(C)C)C(=O)N[C@@H](CO)C(=O)N[C@@H](CO)C(=O)N[C@@H](CCSC)C(=O)N[C@@H](CCCCN)C(=O)N[C@@H](CO)C(=O)N[C@H](C(N)=O)[C@@H](C)O) [SP547] | equivalent to those of sections coated by other peptides according to the invention |  | 
7 | Ac-K(N3)-PEG4-PRVTLDKKEAIQGGIVRVNSSVPEEK-CONH2 (Ac-[Lys(N3)][PEG4′]PRVTLDKKEAIQGGIVRVNSSVPEEK-NH2) [SP1071] | significantly higher than those obtained by the bare metal disks or by disks coated with PDA alone |  | 
